Test results published in US20180325914A1, “INCREASING STORAGE OF VITAMIN A, VITAMIN D AND/OR LIPIDS” (Salk Institute for Biological Studies, priority 2014, published 2018).

System: primary HSCs
[1] = mRNA-Seq expression, primary HSCs, day 6 with JQ1

`Cc1sc2c(c1C)C(c1ccc(Cl)cc1)=N[C@@H](CC(=O)OC(C)(C)C)c1nnc(C)n1-2` [JQ1, (S)-tert-butyl 2-(4-(4-chlorophenyl)-2,3,9-trimethyl-6H-thieno[3,2-f][1,2,4]triazolo[4,3-a][1,4]diazepin-6-yl)acetate] was tested, and the “Elfn1 value_2 (Day_6_JQ1)” value [1] was 0.4141, the “Eln value_2 (Day_6_JQ1)” value [1] was 0.6077 and the “Esrp2 value_2 (Day_6_JQ1)” value [1] was 0.7459. The “Etv4 value_2 (Day_6_JQ1)” value [1] was 1.116, the “F3 value_2 (Day_6_JQ1)” value [1] was 32.9312 and the “Fam132b value_2 (Day_6_JQ1)” value [1] was 0.6136. For the same compound, the “Fam198b value_2 (Day_6_JQ1)” value [1] was 1.907, the “Fblim1 value_2 (Day_6_JQ1)” value [1] was 12.2302 and the “Fibin value_2 (Day_6_JQ1)” value [1] was 1.847. The “Fkbp10 value_2 (Day_6_JQ1)” value [1] was 27.4534, the “Fkbp11 value_2 (Day_6_JQ1)” value [1] was 6.955 and the “Fst value_2 (Day_6_JQ1)” value [1] was 3.079. For the same compound, the “Fxyd6 value_2 (Day_6_JQ1)” value [1] was 0.9921, the “Gbx2 value_2 (Day_6_JQ1)” value [1] was 0.4331 and the “Gjb3 value_2 (Day_6_JQ1)” value [1] was 0.08229. The “Gjb5 value_2 (Day_6_JQ1)” value [1] was 0.1388, the “Gm12824 value_2 (Day_6_JQ1)” value [1] was 0.8107 and the “Gpr176 value_2 (Day_6_JQ1)” value [1] was 5.413. For the same compound, the “Has2 value_2 (Day_6_JQ1)” value [1] was 1.812, the “Hebp2 value_2 (Day_6_JQ1)” value [1] was 0.7684 and the “Hhipl1 value_2 (Day_6_JQ1)” value [1] was 0.517. For the same compound, the “Hsd11b1 value_2 (Day_6_JQ1)” value [1] was 3.839, the “Hspb2 value_2 (Day_6_JQ1)” value [1] was 6.826 and the “Hspb7 value_2 (Day_6_JQ1)” value [1] was 0.2986. For the same compound, the “Htra3 value_2 (Day_6_JQ1)” value [1] was 1.896, the “Ivl value_2 (Day_6_JQ1)” value [1] was 0.5056 and the “Jph2 value_2 (Day_6_JQ1)” value [1] was 3.451. For the same compound, the “Kcnmb1 value_2 (Day_6_JQ1)” value [1] was 0.01726, the “Kctd15 value_2 (Day_6_JQ1)” value [1] was 1.124 and the “Lmod1 value_2 (Day_6_JQ1)” value [1] was 5.533. For the same compound, the “Lox14 value_2 (Day_6_JQ1)” value [1] was 6.181, the “Lox value_2 (Day_6_JQ1)” value [1] was 102.497 and the “Ltbp1 value_2 (Day_6_JQ1)” value [1] was 3.833. The “Ltbp2 value_2 (Day_6_JQ1)” value [1] was 4.7344, the “Mfap4 value_2 (Day_6_JQ1)” value [1] was 0.2994 and the “Mfap5 value_2 (Day_6_JQ1)” value [1] was 1.011. For the same compound, the “Mgp value_2 (Day_6_JQ1)” value [1] was 22.5571, the “Mmp23 value_2 (Day_6_JQ1)” value [1] was 6.014 and the “Mrap value_2 (Day_6_JQ1)” value [1] was 0.2549. The “Mrgprf value_2 (Day_6_JQ1)” value [1] was 1.3677, the “Myl9 value_2 (Day_6_JQ1)” value [1] was 142.669 and the “Naalad2 value_2 (Day_6_JQ1)” value [1] was 0.9739. The “Nfatc4 value_2 (Day_6_JQ1)” value [1] was 2.235, the “Npr3 value_2 (Day_6_JQ1)” value [1] was 8.408 and the “Olfm2 value_2 (Day_6_JQ1)” value [1] was 0.8372. The “P2ry14 value_2 (Day_6_JQ1)” value [1] was 6.946, the “P4ha3 value_2 (Day_6_JQ1)” value [1] was 1.335 and the “Pappa value_2 (Day_6_JQ1)” value [1] was 0.6606. The “Pdgfc value_2 (Day_6_JQ1)” value [1] was 1.527, the “Pdgfrl value_2 (Day_6_JQ1)” value [1] was 0.4741 and the “Pdlim3 value_2 (Day_6_JQ1)” value [1] was 0.5953. The “Pla1a value_2 (Day_6_JQ1)” value [1] was 2.047, the “Postn value_2 (Day_6_JQ1)” value [1] was 58.0905 and the “Prelid2 value_2 (Day_6_JQ1)” value [1] was 1.71. For the same compound, the “Prkar1b value_2 (Day_6_JQ1)” value [1] was 1.1011, the “Pstpip1 value_2 (Day_6_JQ1)” value [1] was 0.2607 and the “Ptgs2 value_2 (Day_6_JQ1)” value [1] was 2.221. For the same compound, the “Ptprn value_2 (Day_6_JQ1)” value [1] was 5.204, the “Rap1gap2 value_2 (Day_6_JQ1)” value [1] was 2.58 and the “Rasl12 value_2 (Day_6_JQ1)” value [1] was 0.3063. The “Rgs4 value_2 (Day_6_JQ1)” value [1] was 2.345, the “Saa3 value_2 (Day_6_JQ1)” value [1] was 10.7546 and the “Serpinb9b value_2 (Day_6_JQ1)” value [1] was 4.136. The “Serpinf1 value_2 (Day_6_JQ1)” value [1] was 66.5572, the “Sertad4 value_2 (Day_6_JQ1)” value [1] was 0.6904 and the “Slc16a3 value_2 (Day_6_JQ1)” value [1] was 10.7025. The “Sorcs2 value_2 (Day_6_JQ1)” value [1] was 0.1588, the “Spon2 value_2 (Day_6_JQ1)” value [1] was 12.3682 and the “Srpx2 value_2 (Day_6_JQ1)” value [1] was 2.998. For the same compound, the “Stra6 value_2 (Day_6_JQ1)” value [1] was 0.07484, the “Syt13 value_2 (Day_6_JQ1)” value [1] was 6.257 and the “Tfpi2 value_2 (Day_6_JQ1)” value [1] was 4.486. For the same compound, the “Thy1 value_2 (Day_6_JQ1)” value [1] was 2.222, the “Tll1 value_2 (Day_6_JQ1)” value [1] was 0.3916 and the “Tmeff1 value_2 (Day_6_JQ1)” value [1] was 5.181. For the same compound, the “Tmem200a value_2 (Day_6_JQ1)” value [1] was 0.3192, the “Tnfsf8 value_2 (Day_6_JQ1)” value [1] was 0.1581 and the “Tnfsf13b value_2 (Day_6_JQ1)” value [1] was 1.119. For the same compound, the “Tnfsf15 value_2 (Day_6_JQ1)” value [1] was 0.07599, the “Tnfsf18 value_2 (Day_6_JQ1)” value [1] was 0.24 and the “Trpc6 value_2 (Day_6_JQ1)” value [1] was 0.05189. For the same compound, the “Wbscr17 value_2 (Day_6_JQ1)” value [1] was 0.7256, the “Wisp1 value_2 (Day_6_JQ1)” value [1] was 4.262 and the “Wisp2 value_2 (Day_6_JQ1)” value [1] was 1.369. The “Wnt11 value_2 (Day_6_JQ1)” value [1] was 1.299, the “Zfp827 value_2 (Day_6_JQ1)” value [1] was 0.4625 and the “1110003E01Rik value_2” value (mRNA-Seq, sample Day_6_JQ1) was 69.1288. The “1600014C10Rik value_2” value (mRNA-Seq, sample Day_6_JQ1) was 21.437, the “2310022B05Rik value_2” value (mRNA-Seq, sample Day_6_JQ1) was 132.474 and the “Adam15 value_2” value (mRNA-Seq, sample Day_6_JQ1) was 78.5951. The “Afap1l2 value_2” value (mRNA-Seq, sample Day_6_JQ1) was 58.9193, the “Ahdc1 value_2” value (mRNA-Seq, sample Day_6_JQ1) was 13.24 and the “Apln value_2” value (mRNA-Seq, sample Day_6_JQ1) was 16.0329. For the same compound, the “Arhgap11a value_2” value (mRNA-Seq, sample Day_6_JQ1) was 12.9839, the “Arhgef17 value_2” value (mRNA-Seq, sample Day_6_JQ1) was 35.1441 and the “Aurkb value_2” value (mRNA-Seq, sample Day_6_JQ1) was 18.2306. The “BC018242 value_2” value (mRNA-Seq, sample Day_6_JQ1) was 17.3751, the “BC031353 value_2” value (mRNA-Seq, sample Day_6_JQ1) was 10.0028 and the “BC046404 value_2” value (mRNA-Seq, sample Day_6_JQ1) was 27.3155. For the same compound, the “Bambi value_2” value (mRNA-Seq, sample Day_6_JQ1) was 20.2742, the “Basp1 value_2” value (mRNA-Seq, sample Day_6_JQ1) was 173.108 and the “Bicc1 value_2” value (mRNA-Seq, sample Day_6_JQ1) was 86.5801. For the same compound, the “Bphl value_2” value (mRNA-Seq, sample Day_6_JQ1) was 18.4476, the “C330027C09Rik value_2” value (mRNA-Seq, sample Day_6_JQ1) was 10.1673 and the “Cadm4 value_2” value (mRNA-Seq, sample Day_6_JQ1) was 23.19. For the same compound, the “Cbx5 value_2” value (mRNA-Seq, sample Day_6_JQ1) was 28.9059.
